# Data from patent US20090047306A1, “ADJUVANT COMPOSITIONS” (priority 2004, published 2009).
# B1: rIL-12: rIL-12 (R&D Systems, Oxford, UK), recombinant interleukin-12 (protein, UniProt P29459 23-219; P29460 23-328, looked up)
# Interleukin-12 subunit alpha: RNLPVATPDPGMFPCLHHSQNLLRAVSNMLQKARQTLEFYPCTSEEIDHEDITKDKTSTVEACLPLELTKNESCLNSRETSFITNGSCLASRKTSFMMALCLSSIYEDLKMYQVEFKTMNAKLLMDPKRQIFLDQNMLAVIDELMQALNFNSETVPQKSSLEEPDFYKTKIKLCILLHAFRIRAVTIDRVMSYLNAS
# Interleukin-12 subunit beta: IWELKKDVYVVELDWYPDAPGEMVVLTCDTPEEDGITWTLDQSSEVLGSGKTLTIQVKEFGDAGQYTCHKGGEVLSHSLLLLHKKEDGIWSTDILKDQKEPKNKTFLRCEAKNYSGRFTCWWLTTISTDLTFSVKSSRGSSDPQGVTCGAATLSAERVRGDNKEYEYSVECQEDSACPAAEESLPIEVMVDAVHKLKYENYTSSFFIRDIIKPDPPKNLQLKPLKNSRQVEVSWEYPDTWSTPHSYFSLTFCVQVQGKSKREKKDRVFTDKTSATVICRKNASISVRAQDRYYSSSWSEWASVPCS
# Columns and labels:
# [1] = test system: α-mannosidase; details: cited from earlier work
# [2] = test system: α-glucosidase; details: cited from earlier work
# [3] = test system: glycosidase; details: cited from earlier work
# [4] = test system: influenza vaccine-specific IgG, IgG1 and IgG2a; parameters: species or system Balb/c mice; details: mouse, in vivo
# [5] = test system: OVA-specific IgG1 and IgG2a; test: OVA-specific IgG1 and IgG2a plasma antibody titres (ELISA) after immunization with OVA/alum with or without alkaloid; type: in vivo, mice (BALB/c)
# Method: Alhydrogel (alum; purchased from Superfos BioSector a/s, Vedbaek, Denmark) was mixed with a predetermined quantity of highly purified ovalbumin (OVA; Worthington Biochemical Corporation, Lakewood, N.J.) with or without 3,7-diepi-casuarine.
# (§1) All mice (BALB/c) were immunized subcutaneously into the foodpad with 100 μg OVA in 50 μl phosphate-buffered saline (PBS) mixed with alum and either PBS (control) or 3,7-diepi-casuarine (50 μg in PBS). Boosting inoculations were performed in the same fashion 2 weeks later, into the contralateral footpad.
# Blood samples (tail bleeds) were taken 3 weeks after the primary inoculation. Enzyme-linked immunosorbent assays (ELISA) were performed as described in Brewer et al. (1999) J Immunol 163:6448-54 to detect OVA-specific IgG1 and IgG2a in plasma. Results were expressed as end-point dilutions where the end-point is determined as the final plasma dilution, which yields a higher absorbance than a negative control plasma sample, included in the assay.
# [6] = test system: Murine interferon-γ (IFN-γ); test: IFN-γ production by spleen cells of inoculated mice re-stimulated with OVA in vitro (ELISA); type: cell-based, mice (BALB/c); details: cells from mice inoculated with alum/OVA plus 50 μg compound vs alum/OVA alone (control); FIG. 2
# Method: as §1
# The mouse spleen was removed aseptically and placed in a sterile petri dish containing 5 mls of complete medium (RPMI, 1% L-Glutamine, 1% Penicillin/Streptomycin and 10% foetal calf serum). Cells suspensions were prepared by using the end of a syringe and grinding the spleen through a wire mesh. The cell suspension was then centrifuged at 1000 rpm for 5 minutes. To remove the erythrocytes, the cell pellet was resuspended in Boyle's solution (Tris 0.17M & Ammonium Chloride 0.16M) and centrifuged again for 5 minutes. The pellet was then washed in medium a further two times, then resuspended in 3 ml medium. A cell count was then carried out. Stimulation assays were performed in triplicate in U-bottomed 96-well plates (Corning Costar, N.Y.) with OVA (at 5 μg/ml, 100 μg/ml and 500 μg/ml).
# Murine interferon-γ (IFN-γ) was assayed by ELISA using paired antibodies according to the manufacturer's instructions.
# [7] = test system: alum-induced Th1/Th2 response; test: Effect of exogenous rIL-12 on alum-induced Th1/Th2 responses (Example 1 repeated, lymph node cultures); type: in vivo, mice (BALB/c); details: 1 μg rIL-12 in place of 3,7-diepi-casuarine; IFN-γ on lymph node cultures
# Method: The experiment described in Example 1 (above) was repeated, but with the 3,7-diepi-casuarine replaced with 1 μg of rIL-12 (R&D Systems, Oxford, UK). Proliferative response assays of IFN-γ were performed on lymph node cultures rather than spleen cells (as described in Pollock et al. (2003) Immunology 108:137-143).
molecule,measurement,setting,value
O[C@H]1[C@H]2[C@H](O)CCCN2C[C@H]1O [swainsonine],inhibition of α-mannosidase,[1],potent and specific inhibitor
O[C@H]1[C@H](O)[C@@H](O)CN2CC[C@H](O)[C@H]12 [castanospermine],inhibition of α-glucosidase,[2],potent
O[C@H]1[C@H]2[C@@H](O)CCN2C[C@H]1O [compound 8],glycosidase inhibitory activity relative to swainsonine,[3],much weaker inhibitory activity
"OC[C@H]1[C@@H](O)[C@H](O)[C@H]2[C@@H](O)[C@@H](O)CN21 [3,7-diepi-casuarine, (1R,2R,3S,6S,7R,7aR)-3-(hydroxymethyl)-1,2,6,7-tetrahydroxypyrrolizidine]",adjuvant activity,[4],exhibits adjuvant activity
same,dose response of the antibody responses,[4],No dose response
same,influenza vaccine-specific IgG1 response vs control group vaccinated with influenza vaccine alone,[4],statistically significant increased
same,influenza vaccine-specific IgG2a response vs control group A,[4],No differences
same,influenza vaccine-specific IgGtotal response vs control group A,[4],statistically significant increased
same,skewing of the Th1/Th2 response from Th2 towards Th1,[4],No skewing
same,shift of the alum-induced Th2 response towards Th1,"[5]; 50 μg in admixture with alum/OVA, vs alum/OVA alone",pronounced shift towards a Th1 response
same,antigen-specific (OVA) IgG2a in plasma,"[5]; BALB/c mice, s.c. footpad, 100 μg OVA with alum, with or without 50 μg 3,7-diepi-casuarine, bleed at 3 weeks, FIG. 1b",significant increase
same,IFN-γ produced by spleen cells re-stimulated with antigen in vitro,[6],significantly greater amount
"O[C@H]1[C@H]2[C@H](O)CCN2C[C@H]1O [compound 7, (1S, 2R, 7R, 7aR)-1,2,7-trihydroxy]",glycosidase inhibitory activity relative to swainsonine,[3],much weaker inhibitory activity
B1,effect on the alum-induced Th1/Th2 response,[7],"comparable effect to 3,7-diepi-casuarine"
